Results published in patent publication US20160214918A1, “COMPOSITION FOR TREATING METABOLIC SYNDROME AND A PREPARATION METHOD THEREOF” (Kaohsiung Medical University, priority 2015, published 2016).

Key:
mature fat cells = experiment: glucose consumption rate of fat cells in culture medium; assay type: cell-based; settings: 24 hours, control group about 20%
Description: Please refer to FIGS. 6A-6C. FIGS. 6A-6C show the results of the activity of the glucose consumption rate of fat cells in the culture medium. As shown in FIGS. 6A-6C, various compounds containing halogens, such as chlorine, bromine and iodine, can increase the glucose consumption rate of fat cells. Many of the deuterium-containing compounds are new ones in this example. […] Symbol ‘Con’ denotes the Control Group, Symbol ‘5’ denotes a 2Br2H compound, Symbol ‘6’ denotes a 2I2H compound, Symbol ‘Met’ denotes a metformin, Symbol ‘AI’ denotes an AMPK inhibitor, Symbol ‘L’ denotes a low-dose usage of 15 ug/mL, and Symbol ‘H’ denotes a high-dose usage of 30 ug/mL
The activity of the glucose consumption rate of fat cells is taken from the following: A testing drug, 2,3-dideutero-1-(2-iodophenyl)-3-(4-methoxyphenyl)propan-1-one with the concentration 30 ug/mL, was cultured with mature fat cells for 24 hours. It was then tested to determine the change of the glucose concentration in the culture medium.
24 hours after the replacement of a culture media, the glucose consumption rate of the control group was about 20%. After insulin was added, the glucose consumption rate of the cells in the control group upgrades to 30%. With the commercial drug, Pioglitazone of 30 ug/mL, the glucose consumption rate of the cells in the corresponding group increased to 40%.

fat cells = experiment: cellular toxicity in fat cells; assay type: cell-based; settings: FIG. 6A, drug 30 ug/mL

Compound | cellular toxicity (fat cells) | also measured
insulin: insulin added to fat cells as a positive control |  | glucose consumption rate of the cells (mature fat cells; fat cells, after insulin was added): 30%
COc1ccc(/C=C/C(=O)c2ccccc2I)cc1 [2I2H, (E)-1-(2-iodophenyl)-3-(4-methoxyphenyl)prop-2-en-1-one] | no visible cellular toxicity | 
[2H]C(C(=O)c1ccccc1I)C([2H])c1ccc(OC)cc1 (centres unmarked) [2I1D, 2,3-dideutero-1-(2-iodophenyl)-3-(4-methoxyphenyl)propan-1-one] | no visible cellular toxicity | 
CCc1ccc(CCOc2ccc(CC3SC(=O)NC3=O)cc2)nc1 (centres unmarked) [Pioglitazone, reference compound] |  | glucose consumption rate of the cells (mature fat cells; mature fat cells, drug 30 ug/mL): 40%
COc1ccc(C#CC(=O)c2ccccc2I)cc1 [2I3, 1-(2-iodophenyl)-3-(4-methoxyphenyl)prop-2-yn-1-one] | significant cellular toxicity | 
